According to ChEMBL document CHEMBL1141032, “Design and synthesis of peptidomimetic severe acute respiratory syndrome chymotrypsin-like protease inhibitors” (J Med Chem, 2005):
pIC50: −log10 of the molar value.

Key:
[1] = molecular target: Replicase polyprotein 1a (Severe acute respiratory syndrome-related coronavirus) (UniProt P0C6U8); assay: Half life period against SARS-CoV 3CLpro protease
[2] = molecular target: Replicase polyprotein 1a (Severe acute respiratory syndrome-related coronavirus) (UniProt P0C6U8)
[3] = molecular target: Replicase polyprotein 1a (Severe acute respiratory syndrome-related coronavirus) (UniProt P0C6U8); assay: Inactivation rate constant against SARS-CoV 3CLpro protease
Replicase polyprotein 1a = Replicase polyprotein 1a (Severe acute respiratory syndrome-related coronavirus, UniProt P0C6U8); assay: Inhibitory concentration required for antiviral activity against SARS-CoV 3CLpro protease

| SMILES | T1/2 [1] [h] | kinact [2] [min⁻¹] | kinact [3] [min⁻¹] | pIC50 (Replicase polyprotein 1a) |
| --- | --- | --- | --- | --- |
| CCOC(=O)/C=C/[C@H](C[C@@H]1CCNC1=O)NC(=O)[C@H](CC=C(C)C)CC(=O)[C@@H](NC(=O)c1cc(C)on1)C(C)C | 0.25 | 0.045 |  |  |
| CCOC(=O)/C=C/[C@H](C[C@@H]1CCNC1=O)NC(=O)[C@H](Cc1ccccc1)CC(O)[C@@H](NC(=O)c1cc(C)on1)C(C)C (some centres undefined) | 4.62 |  | 0.0025 |  |
| CCOC(=O)/C=C/[C@H](C[C@@H]1CCNC1=O)NC(=O)[C@@H](CC(=O)[C@@H](NC(=O)c1cc(C)on1)C(C)C)Cc1ccccc1 | 0.817 |  | 0.014 | 4.35 |
| CC(C)C[C@H](NC(=O)[C@@H](O)C(S)C(=O)O)C(=O)NCCCCN=C(N)N (some centres undefined) | 5.25 |  | 0.0022 |  |
